Assay results taken from PubChem BioAssay AID248 (DTP/NCI, 2004).
“And” between values parts separate entries of the source, which are not always exact repeats. Identical values can stand only once. Inconclusive results and toxic doses are left out. No stated cut-off is given here; in the data, active means T/C of 150% or more; inactive means T/C below 125%.

Tested on: L1210 leukemia ip in BDF1 mice, survival T/C
Experiment: NCI In Vivo Anticancer Drug Screen. Data for tumor model L1210 Leukemia (intraperitoneal) in B6D2F1 (BDF1) mice
Settings: higher = longer survival
How it was run: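 Antitumor effect is assessed in tumor-bearing animals. Survival in the compound arm is compared with a vehicle-dosed control arm and expressed as their quotient.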

[1] = endpoint: mean survival time, dose: 100.0 mg/kg/injection, schedule: Q04DX003 (ip), vehicle: saline with Tween-80

Measured: T/C

COc1cc2cc3c4cc(OC)c(OC)cc4cc[n+]3c(C)c2cc1OC (tested in a mixture with another compound)
inactive: endpoint: mean survival time, dose: 5.0 mg/kg/injection, schedule: Q01DX009 (ip), vehicle: saline 105 % of control and 113 % of control | endpoint: mean survival time, dose: 8.0 mg/kg/injection, schedule: Q01DX009 (ip), vehicle: Klucel (hydroxypropylcellulose) (HPC) 114 % of control | endpoint: mean survival time, dose: 10.0 mg/kg/injection, schedule: Q01DX009 (ip), vehicle: saline 105 % of control | endpoint: mean survival time, dose: 16.0 mg/kg/injection, schedule: Q01DX009 (ip), vehicle: clinical formulation 116 % of control | endpoint: mean survival time, dose: 16.0 mg/kg/injection, schedule: Q03HX024 (ip), vehicle: saline 107 % of control | endpoint: mean survival time, dose: 40.0 mg/kg/injection, schedule: Q01DX009 (ip), vehicle: saline 116 % of control | endpoint: mean survival time, dose: 64.0 mg/kg/injection, schedule: Q03HX024 (ip), vehicle: saline 113 % of control | endpoint: mean survival time, dose: 80.0 mg/kg/injection, schedule: Q01DX009 (ip), vehicle: saline 117 % of control | [1] 116 % of control | endpoint: mean survival time, dose: 128.0 mg/kg/injection, schedule: Q08DX002 (ip), vehicle: saline 112 % of control | endpoint: mean survival time, dose: 150.0 mg/kg/injection, schedule: Q04DX003 (ip), vehicle: saline with Tween-80 117 % of control | endpoint: mean survival time, dose: 200.0 mg/kg/injection, schedule: Q04DX002 (ip), vehicle: saline 105 % of control | endpoint: mean survival time, dose: 256.0 mg/kg/injection, schedule: Q04DX003 (ip), vehicle: saline 118 % of control | endpoint: median survival time, dose: 8.0 mg/kg/injection, schedule: Q01DX009 (ip), vehicle: Klucel (hydroxypropylcellulose) (HPC) 108 % of control | endpoint: median survival time, dose: 8.0 mg/kg/injection, schedule: Q01DX009 (ip), vehicle: clinical formulation 110 % of control | endpoint: median survival time, dose: 8.0 mg/kg/injection, schedule: Q01DX009 (ip), vehicle: other 117 % of control | endpoint: median survival time, dose: 8.0 mg/kg/injection, schedule: Q01DX009 (ip), vehicle: water 111 % of control | endpoint: median survival time, dose: 8.0 mg/kg/injection, schedule: Q01DX009 (oral), vehicle: other 99 % of control and 113 % of control | endpoint: median survival time, dose: 8.0 mg/kg/injection, schedule: Q01DX009 (sc), vehicle: other 104 % of control | endpoint: median survival time, dose: 16.0 mg/kg/injection, schedule: Q01DX009 (ip), vehicle: Klucel (hydroxypropylcellulose) (HPC) 104 % of control | endpoint: median survival time, dose: 16.0 mg/kg/injection, schedule: Q01DX009 (ip), vehicle: clinical formulation 114 % of control | endpoint: median survival time, dose: 16.0 mg/kg/injection, schedule: Q01DX009 (oral), vehicle: other 98 % of control and 105 % of control | endpoint: median survival time, dose: 16.0 mg/kg/injection, schedule: Q01DX009 (oral), vehicle: saline 100 % of control | endpoint: median survival time, dose: 16.0 mg/kg/injection, schedule: Q01DX009 (sc), vehicle: other 104 % of control | endpoint: median survival time, dose: 25.0 mg/kg/injection, schedule: Q01DX009 (ip), vehicle: Klucel (hydroxypropylcellulose) (HPC) 98 % of control and 99 % of control | endpoint: median survival time, dose: 25.0 mg/kg/injection, schedule: Q01DX009 (ip), vehicle: other 98 % of control and 99 % of control | endpoint: median survival time, dose: 25.0 mg/kg/injection, schedule: Q01DX009 (ip), vehicle: saline 99 % of control and 100 % of control | endpoint: median survival time, dose: 32.0 mg/kg/injection, schedule: Q01DX001 (oral), vehicle: saline 95 % of control and 100 % of control | endpoint: median survival time, dose: 32.0 mg/kg/injection, schedule: Q01DX001 (sc), vehicle: saline 95 % of control | endpoint: median survival time, dose: 32.0 mg/kg/injection, schedule: Q01DX009 (oral), vehicle: other 115 % of control and 116 % of control | endpoint: median survival time, dose: 32.0 mg/kg/injection, schedule: Q01DX009 (oral), vehicle: saline 100 % of control | endpoint: median survival time, dose: 32.0 mg/kg/injection, schedule: Q01DX009 (sc), vehicle: other 100 % of control | endpoint: median survival time, dose: 32.0 mg/kg/injection, schedule: Q01DX009 (sc), vehicle: saline 95 % of control | endpoint: median survival time, dose: 50.0 mg/kg/injection, schedule: Q01DX009 (ip), vehicle: Klucel (hydroxypropylcellulose) (HPC) 100 % of control and 101 % of control | endpoint: median survival time, dose: 50.0 mg/kg/injection, schedule: Q01DX009 (ip), vehicle: other 95 % of control and 96 % of control | endpoint: median survival time, dose: 50.0 mg/kg/injection, schedule: Q01DX009 (ip), vehicle: saline 100 % of control and 101 % of control | endpoint: median survival time, dose: 64.0 mg/kg/injection, schedule: Q01DX001 (ip), vehicle: other 118 % of control | endpoint: median survival time, dose: 64.0 mg/kg/injection, schedule: Q01DX001 (oral), vehicle: other 100 % of control and 101 % of control | endpoint: median survival time, dose: 64.0 mg/kg/injection, schedule: Q01DX001 (oral), vehicle: saline 100 % of control | endpoint: median survival time, dose: 64.0 mg/kg/injection, schedule: Q01DX001 (sc), vehicle: other 114 % of control | endpoint: median survival time, dose: 64.0 mg/kg/injection, schedule: Q01DX009 (oral), vehicle: other 106 % of control and 114 % of control | endpoint: median survival time, dose: 64.0 mg/kg/injection, schedule: Q01DX009 (oral), vehicle: saline 100 % of control | endpoint: median survival time, dose: 64.0 mg/kg/injection, schedule: Q01DX009 (sc), vehicle: other 101 % of control | endpoint: median survival time, dose: 64.0 mg/kg/injection, schedule: Q01DX009 (sc), vehicle: saline 100 % of control | endpoint: median survival time, dose: 64.0 mg/kg/injection, schedule: Q04DX003 (sc), vehicle: saline 100 % of control | endpoint: median survival time, dose: 100.0 mg/kg/injection, schedule: Q01DX009 (ip), vehicle: Klucel (hydroxypropylcellulose) (HPC) 96 % of control and 97 % of control | endpoint: median survival time, dose: 100.0 mg/kg/injection, schedule: Q01DX009 (ip), vehicle: saline 105 % of control and 108 % of control | endpoint: median survival time, dose: 128.0 mg/kg/injection, schedule: Q01DX001 (oral), vehicle: other 100 % of control and 104 % of control | endpoint: median survival time, dose: 128.0 mg/kg/injection, schedule: Q01DX001 (oral), vehicle: saline 100 % of control | endpoint: median survival time, dose: 128.0 mg/kg/injection, schedule: Q01DX001 (sc), vehicle: other 100 % of control | endpoint: median survival time, dose: 128.0 mg/kg/injection, schedule: Q01DX001 (sc), vehicle: saline 100 % of control | endpoint: median survival time, dose: 128.0 mg/kg/injection, schedule: Q01DX009 (ip), vehicle: water 98 % of control | endpoint: median survival time, dose: 128.0 mg/kg/injection, schedule: Q01DX009 (oral), vehicle: other 98 % of control and 110 % of control | endpoint: median survival time, dose: 128.0 mg/kg/injection, schedule: Q01DX009 (oral), vehicle: saline 100 % of control | endpoint: median survival time, dose: 128.0 mg/kg/injection, schedule: Q01DX009 (sc), vehicle: other 100 % of control | endpoint: median survival time, dose: 128.0 mg/kg/injection, schedule: Q01DX009 (sc), vehicle: saline 105 % of control | endpoint: median survival time, dose: 200.0 mg/kg/injection, schedule: Q01DX009 (ip), vehicle: Klucel (hydroxypropylcellulose) (HPC) 95 % of control and 96 % of control | endpoint: median survival time, dose: 200.0 mg/kg/injection, schedule: Q01DX009 (ip), vehicle: other 117 % of control | endpoint: median survival time, dose: 200.0 mg/kg/injection, schedule: Q01DX009 (ip), vehicle: saline 95 % of control and 98 % of control | endpoint: median survival time, dose: 256.0 mg/kg/injection, schedule: Q01DX001 (oral), vehicle: other 99 % of control and 100 % of control | endpoint: median survival time, dose: 256.0 mg/kg/injection, schedule: Q01DX001 (oral), vehicle: saline 100 % of control | endpoint: median survival time, dose: 256.0 mg/kg/injection, schedule: Q01DX001 (sc), vehicle: other 100 % of control | endpoint: median survival time, dose: 256.0 mg/kg/injection, schedule: Q01DX009 (oral), vehicle: other 100 % of control and 110 % of control | endpoint: median survival time, dose: 256.0 mg/kg/injection, schedule: Q01DX009 (oral), vehicle: saline 110 % of control | endpoint: median survival time, dose: 256.0 mg/kg/injection, schedule: Q01DX009 (sc), vehicle: other 99 % of control | endpoint: median survival time, dose: 256.0 mg/kg/injection, schedule: Q01DX009 (sc), vehicle: saline 110 % of control | endpoint: median survival time, dose: 256.0 mg/kg/injection, schedule: Q04DX003 (sc), vehicle: saline 100 % of control | endpoint: median survival time, dose: 400.0 mg/kg/injection, schedule: Q01DX009 (ip), vehicle: Klucel (hydroxypropylcellulose) (HPC) 96 % of control and 97 % of control | endpoint: median survival time, dose: 512.0 mg/kg/injection, schedule: Q01DX001 (oral), vehicle: other 98 % of control and 101 % of control | endpoint: median survival time, dose: 512.0 mg/kg/injection, schedule: Q01DX001 (oral), vehicle: saline 100 % of control | endpoint: median survival time, dose: 512.0 mg/kg/injection, schedule: Q01DX001 (sc), vehicle: other 99 % of control | endpoint: median survival time, dose: 512.0 mg/kg/injection, schedule: Q01DX001 (sc), vehicle: saline 100 % of control | endpoint: median survival time, dose: 512.0 mg/kg/injection, schedule: Q08DX002 (ip), vehicle: other 99 % of control | endpoint: median survival time, dose: 1024.0 mg/kg/injection, schedule: Q01DX001 (oral), vehicle: other 98 % of control and 100 % of control

CCN(CC)Cc1ccc(N)cc1
inactive: endpoint: mean survival time, dose: 12.5 mg/kg/injection, schedule: Q01DX009 (ip), vehicle: saline 100 % of control | endpoint: mean survival time, dose: 25.0 mg/kg/injection, schedule: Q01DX009 (ip), vehicle: saline 110 % of control

CCOc1ccc(CO)cc1
inactive: [1] 97 % of control | endpoint: mean survival time, dose: 200.0 mg/kg/injection, schedule: Q04DX003 (ip), vehicle: saline with Tween-80 100 % of control | endpoint: mean survival time, dose: 400.0 mg/kg/injection, schedule: Q04DX003 (ip), vehicle: saline with Tween-80 89 % of control

Oc1c(-c2ccccn2)cccc1C(F)(F)F
inactive: endpoint: mean survival time, dose: 12.5 mg/kg/injection, schedule: Q04DX003 (ip), vehicle: Klucel (hydroxypropylcellulose) (HPC) 98 % of control | endpoint: mean survival time, dose: 25.0 mg/kg/injection, schedule: Q04DX003 (ip), vehicle: Klucel (hydroxypropylcellulose) (HPC) 102 % of control | endpoint: mean survival time, dose: 50.0 mg/kg/injection, schedule: Q04DX003 (ip), vehicle: Klucel (hydroxypropylcellulose) (HPC) 100 % of control
